Laboratory results taken from patent US8754073B2, “Substituted piperazino-dihydrothienopyrimidines” (Boehringer Ingelheim International GmbH, priority 2007, dated 2014).

biological target: PDE4B (Homo sapiens, UniProt Q07343); assay: Scintillation Proximity Assay (SPA) of PDE4B enzyme activity ([H3]-cAMP cleavage); assay type: biochemical; conditions: test substance 1 μM; one-hour incubation with [H3]-cAMP at 30° C.
In short: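 Percent inhibition at 1 μM compound, measured against an uninhibited reaction. PDE4B hydrolysed tritiated cAMP for one hour at 30 °C, then scintillator beads were added to capture [H3]-5′-AMP. Light events were counted after 45 min bead settling.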

Sequence of PDE4B (Q07343 whole entry, species assumed): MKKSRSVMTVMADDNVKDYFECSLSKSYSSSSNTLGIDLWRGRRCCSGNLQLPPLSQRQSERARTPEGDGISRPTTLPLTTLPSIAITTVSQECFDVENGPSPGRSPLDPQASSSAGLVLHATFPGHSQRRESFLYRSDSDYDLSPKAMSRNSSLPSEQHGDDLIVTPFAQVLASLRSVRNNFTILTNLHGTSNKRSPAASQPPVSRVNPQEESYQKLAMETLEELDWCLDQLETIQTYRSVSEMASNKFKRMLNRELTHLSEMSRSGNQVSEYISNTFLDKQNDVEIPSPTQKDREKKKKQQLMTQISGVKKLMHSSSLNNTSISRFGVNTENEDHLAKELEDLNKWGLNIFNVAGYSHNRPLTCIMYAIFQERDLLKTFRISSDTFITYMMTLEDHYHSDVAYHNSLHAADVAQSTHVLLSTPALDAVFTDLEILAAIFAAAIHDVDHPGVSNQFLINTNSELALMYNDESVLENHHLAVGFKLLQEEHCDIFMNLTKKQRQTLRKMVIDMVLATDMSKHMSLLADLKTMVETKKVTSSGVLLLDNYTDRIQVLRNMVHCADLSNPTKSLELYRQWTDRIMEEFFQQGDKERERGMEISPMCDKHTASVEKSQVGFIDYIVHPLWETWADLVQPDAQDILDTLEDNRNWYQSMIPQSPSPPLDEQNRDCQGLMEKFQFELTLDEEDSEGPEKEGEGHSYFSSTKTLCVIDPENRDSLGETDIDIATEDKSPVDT

| SMILES | inhibition at 1 µM [%] |
| --- | --- |
| CC(C)(C)OC(=O)NC1CC1Nc1nc(N2CCC(c3ccc(Cl)cc3)CC2)nc2c1[S+]([O-])CC2 (stereo not drawn) [Example 231, tert-butyl (2-{2-[4-(4-chlorophenyl)-piperidin-1-yl]-5-oxo-6,7-dihydro-5H-5λ^4-thieno[3,2-d]pyrimidin-4-ylamino}-cyclopropyl)-carbamidate] | 94 |
| NC1CC1Nc1nc(N2CCC(c3ccc(Cl)cc3)CC2)nc2c1[S+]([O-])CC2 (stereo not drawn) [Example 233, N-{2-[4-(4-Chlorophenyl)-Piperidin-1-Yl]-5-Oxo-6,7-Dihydro-5H-5λ^4-Thieno[3,2-d]Pyrimidin-4-Yl}-Cyclopropan-1,2-Diamine] | 93 |
| CCN1CCc2ccc(OC3CCN(c4nc5c(c(NC6CCOCC6)n4)[S+]([O-])CC5)CC3)cc2CC1 (stereo not drawn) [Example 234] | 95 |
| CC(C)N1CCc2ccc(OC3CCN(c4nc5c(c(NC6CCOCC6)n4)[S+]([O-])CC5)CC3)cc2CC1 (stereo not drawn) [Example 235] | 87 |
| CC(C)(NC(=O)c1ccc(OC2CCN(c3nc4c(c(NC5CCOCC5)n3)[S+]([O-])CC4)CC2)cc1)c1ccncc1 (stereo not drawn) [Example 236] | 95 |
| CN(C(=O)c1ccc(OC2CCN(c3nc4c(c(NC5CCOCC5)n3)[S+]([O-])CC4)CC2)cc1)C1CCOCC1 (stereo not drawn) [Example 237] | 95 |
| O=C(c1ccc(OC2CCN(c3nc4c(c(NC5CCOCC5)n3)[S+]([O-])CC4)CC2)cc1)N(C1CCOCC1)C1CC1 (stereo not drawn) [Example 238] | 95 |
| Cc1cn(C)nc1CN(C)C(=O)c1ccc(OC2CCN(c3nc4c(c(NC5CCOCC5)n3)[S+]([O-])CC4)CC2)cc1 (stereo not drawn) [Example 239] | 94 |
| O=C(c1ccc(OC2CCN(c3nc4c(c(NC5CCOCC5)n3)[S+]([O-])CC4)CC2)cc1)N1CCOCC1 (stereo not drawn) [Example 240] | 94 |
| CN1CCC(N(C)C(=O)c2ccc(OC3CCN(c4nc5c(c(NC6CCOCC6)n4)[S+]([O-])CC5)CC3)cc2)CC1 (stereo not drawn) [Example 241] | 93 |
| CN(C(=O)c1ccc(OC2CCN(c3nc4c(c(NC5CCOCC5)n3)[S+]([O-])CC4)CC2)cc1)C1CC1 (stereo not drawn) [Example 242, N-Cyclopropyl-N-Methyl-4-{1-[5-Oxo-4-(Tetrahydropyran-4-Ylamino)-6,7-Dihydro-5H-5λ^4-Thieno[3,2-d]Pyrimidin-2-Yl]-Piperidin-4-Yloxy}-Benzamide] | 94 |
| Cc1nn(C)c(C)c1CNC(=O)c1ccc(OC2CCN(c3nc4c(c(NC5CCOCC5)n3)[S+]([O-])CC4)CC2)cc1 (stereo not drawn) [Example 243] | 94 |
| Cc1nn(C)cc1C(C)NC(=O)c1ccc(OC2CCN(c3nc4c(c(NC5CCOCC5)n3)[S+]([O-])CC4)CC2)cc1 (stereo not drawn) [Example 244] | 95 |
| N[C@@H]1CC1Nc1nc(N2CCC(c3ccc(Cl)cc3)CC2)nc2c1[S+]([O-])CC2 (stereo partly drawn) [Example 245, N-{2-[4-(4-Chlorophenyl)-Piperidin-1-Yl]-5-Oxo-6,7-Dihydro-5H-5λ^4-Thieno[3,2-d]Pyrimidin-4-Yl}-Cyclopropan-1,2-Diamine] | 68 |
| CN1C[C@@H](Nc2nc(N3CCC(CO)(c4ccc(Cl)cc4)CC3)nc3c2[S+]([O-])CC3)CCC1=O (stereo partly drawn) [Example 246, 5-{2-[4-(4-Chlorophenyl)-4-Hydroxymethylpiperidin-1-Yl]-5-Oxo-6,7-Dihydro-5H-5λ^4-Thieno[3,2-d]Pyrimidin-4-Ylamino}-1-Methyl Piperidin-2-One] | 93 |
| O=C(c1cccc(C2CCN(c3nc4c(c(NC5CCOCC5)n3)[S+]([O-])CC4)CC2)c1)N1CCOCC1 (stereo not drawn) [Example 247] | 90 |
| CN1CCC(N(C)C(=O)c2cccc(C3CCN(c4nc5c(c(NC6CCOCC6)n4)[S+]([O-])CC5)CC3)c2)CC1 (stereo not drawn) [Example 248] | 88 |
| CN(C(=O)c1cccc(C2CCN(c3nc4c(c(NC5CCOCC5)n3)[S+]([O-])CC4)CC2)c1)C1CC1 (stereo not drawn) [Example 249, N-cyclopropyl-N-methyl-3-{1-[5-oxo-4-(tetrahydropyran-4-ylamino)-6,7-dihydro-5H-5λ^4-thieno[3,2-d]pyrimidin-2-yl]-piperidin-4-yl}-benzamide] | 93 |
